# ChEMBL document CHEMBL4251610, “Branching tryptamines as a tool to tune their antiproliferative activity” (Eur J Med Chem, 2018)
# Experiments:
# Format in all cases: functional, cell-based
# [1] = system: SH-SY5Y; assay: Antiproliferative activity against human SH-SY5Y cells after 24 hrs by MTT assay
# [2] = system: HEK293; assay: Antiproliferative activity against HEK293 cells after 24 hrs by MTT assay; conditions: Homo sapiens, HEK293, 24 h
# [3] = system: HepG2; assay: Antiproliferative activity against human HepG2 cells after 24 hrs by MTT assay; conditions: HepG2, 24 h
# [4] = system: Jurkat; assay: Antiproliferative activity against human Jurkat cells after 24 hrs by MTT assay
SMILES,IC50 [1],IC50 [2],IC50 [3],IC50 [4]
Cc1[nH]c2ccc(Br)cc2c1CC(N)c1ccc(F)cc1 (configuration not stated),22.9 µM,23.2 µM,9.58 µM,11.8 µM
Cc1ccc(C(N)Cc2c(C)[nH]c3ccc(Br)cc23)cc1 (configuration not stated),21.9 µM,23.2 µM,7.76 µM,9.86 µM
Cc1[nH]c2ccc(-c3ccccc3)cc2c1CCNCc1ccccc1,5.71 µM,16.6 µM,1.49 µM,1.45 µM
Cc1[nH]c2ccc(-c3ccccc3)cc2c1CC(N)c1ccccc1 (configuration not stated),12.5 µM,10.1 µM,1.82 µM,1.58 µM
Cc1[nH]c2ccc(F)cc2c1CC(N)c1ccccc1 (configuration not stated),59.1 µM,73.5 µM,15.8 µM,15.2 µM
Cc1c(CC(N)c2ccccc2)c2cc(F)ccc2n1Cc1ccccc1 (configuration not stated),15 µM,16.7 µM,13.1 µM,14 µM
Cc1[nH]c2ccc(F)cc2c1CC(NCc1ccccc1)c1ccccc1 (configuration not stated),20.2 µM,65.2 µM,19.4 µM,13.8 µM
Cc1[nH]c2ccc(Br)cc2c1CC(N)c1ccc(Cl)cc1 (configuration not stated),18.6 µM,18.4 µM,8.43 µM,7.5 µM
COc1cc(CNCCc2c(C)[nH]c3ccc(F)cc23)cc2c1OCO2,12.5 µM,17.7 µM,16.4 µM,13.9 µM
Cc1c(CC(N)c2ccccc2)c2cc(-c3ccccc3)ccc2n1Cc1ccccc1 (configuration not stated),11.9 µM,16.3 µM,1.46 µM,1.9 µM
Cc1[nH]c2ccccc2c1CC(N)c1ccccc1 (configuration not stated),117 µM,109 µM,16.7 µM,15.5 µM
COc1ccc(C(N)Cc2c(C)[nH]c3ccc(Br)cc23)cc1 (configuration not stated),17.8 µM,18.7 µM,7.12 µM,8.14 µM
Cc1[nH]c2ccc(Br)cc2c1C[C@H](N)c1ccccc1,25.2 µM,34.8 µM,10.8 µM,13.8 µM
Cc1c(CCN)c2cc(-c3ccccc3)ccc2n1Cc1ccccc1,12.2 µM,15.4 µM,1.9 µM,3.82 µM
Cc1ccc2[nH]c(C)c(CC(N)c3ccccc3)c2c1 (configuration not stated),46.1 µM,94 µM,17.1 µM,13.2 µM
Cc1[nH]c2ccc(-c3ccccc3)cc2c1CC(NCc1ccccc1)c1ccccc1 (configuration not stated),20.1 µM,20.1 µM,45.5 µM,8.88 µM
Cc1[nH]c2ccc(F)cc2c1CCNCc1ccccc1,25 µM,21.4 µM,14.7 µM,12.9 µM
Cc1[nH]c2ccc(F)cc2c1CCN,> 100 µM,> 100 µM,> 100 µM,> 100 µM
COc1cc(CNCCc2c(C)[nH]c3ccc(-c4ccccc4)cc23)cc2c1OCO2,9.07 µM,8.27 µM,1.37 µM,1.51 µM
Cc1[nH]c2ccc(Br)cc2c1CC(N)c1ccccc1 (configuration not stated),42.7 µM,39.4 µM,14 µM,20.4 µM
Cc1[nH]c2ccc(Br)cc2c1CC(N)c1cc(Cl)cc(Cl)c1 (configuration not stated),27.6 µM,30.9 µM,14.8 µM,9.55 µM
COc1cc(CNC(Cc2c(C)[nH]c3ccc(F)cc23)c2ccccc2)cc2c1OCO2 (configuration not stated),20 µM,54.9 µM,15.6 µM,14.5 µM
Cc1c(CCN)c2cc(F)ccc2n1Cc1ccccc1,13.1 µM,17.2 µM,19.7 µM,13.5 µM
